Source: publication PMC4058456, “Jacobsen Catalyst as a Cytochrome P450 Biomimetic Model for the Metabolism of Monensin A” (BioMed Research International, 2014)
≈ marks a conversion by molar mass, not a printed value. Where two headings read alike, the source gives them in different places. Marks after values point to notes of the source that are not given here.

How the values were obtained:
[1] = test system: Escherichia coli ATCC 25922; test: Antimicrobial bioassay, minimal bactericidal concentration (MTT); format: cell-based
Description: (§1) The bioassays were carried out using the strains Staphylococcus aureus ATCC 25923, Staphylococcus aureus ATCC 43300 (MRSA-methicillin resistant), Staphylococcus epidermidis ATCC 14990, Pseudomonas aeruginosa ATCC 27853, and Escherichia coli ATCC 25922 all acquired from the American Type Culture Collection (ATCC). Approximately 5 × 10^5 microorganisms·mL^−1 were incubated in Muller Hinton broth in 96-well microtiter plates containing the samples to be tested. The compounds (monensin A, metabolite 1, and metabolite 2) were dissolved in dimethylsulfoxide (DMSO) and diluted into the medium to give 100, 50, 25, 12.5, 6.3, 3.1, 1.6, 0.8, 0.4, 0.2, 0.1, and 0.05 μg·mL^−1, as their final concentrations. The plates were incubated at 37°C and the bioassays were performed in triplicate. The cell death was determined by a MTT colorimetric method which was described by Andrews and Furtado et al.. The DMSO solution and chloramphenicol were used as controls of the experiment.

[2] = test system: Pseudomonas aeruginosa ATCC 27853; test: as above; format: cell-based
Description: as §1

[3] = test system: Staphylococcus aureus ATCC 25923; test: as above; format: cell-based; details: for MBC: Staphylococcus aureus
Description: as §1

[4] = test system: Staphylococcus aureus ATCC 43300 (MRSA-methicillin resistant); test: as above; format: cell-based; details: for MBC: Staphylococcus aureus, read-out: Minimal bactericidal concentration
Description: as §1

[5] = test system: Staphylococcus epidermidis ATCC 14990; test: as above; format: cell-based
Description: as §1

rat liver mitochondria [6] = test: Mitochondrial respiration (oxygen consumption, Clark-type electrode); details: 1 μM
Description: (§2) Monensin A was diluted in ethanol to concentrations 0.01, 0.1, and 1 μM. All assays were performed in three replicates. Rat liver mitochondria were isolated by standard differential centrifugation according to Pereira et al. and the mitochondrial protein content was determined by the biuret method.
Mitochondrial respiration was monitored polarographically with an oxygraph (Hansatech) equipped with a Clark-type oxygen electrode. The mitochondria (1.0 mg protein) were incubated at 30°C in 1 mL of the respiratory medium containing 125 mM sucrose, 65 mM KCl, 10 mM HEPES-KOH, 0.5 mM EGTA, and 10 mM K2HPO4; pH 7.2. 5 mM glutamate and malate were used as the oxidizable substrates for complex I; and mitochondrial oxidative phosphorylation (state 3) was initiated using 400 nmol ADP.

rat liver mitochondria [7] = test: Mitochondrial membrane potential (safranin-o fluorescence); details: 1 μM
Description: as §2
Mitochondrial Membrane potential (ΔΨ) was monitored spectrofluorimetrically using 10 μM safranin-o as a probe in a F-4500 spectrofluorometer (Hitachi) with the 495/586 nm excitation/emission wavelength pair. The mitochondria (1.0 mg protein·mL^−1) were incubated at 30°C in 2 mL of the standard reaction medium containing 125 mM sucrose, 65 mM KCl, and 10 mM HEPES-KOH, and CCCP (carbonyl cyanide 3-chlorophenylhydrazone) was added at the end of each experiment for the complete dissipation of the membrane potential.

rat liver mitochondria [8] = test: Mitochondrial swelling (apparent absorbance at 540 nm); details: 1 μM
Description: as §2
Mitochondrial swelling was estimated from the decrease in apparent absorbance at 540 nm performed with a Model DU-70 spectrophotometer (Beckman). The mitochondria were incubated using 30°C in 2 mL of the standard reaction medium.

rat liver mitochondria [9] = test: Mitochondrial ROS production (H2DCFDA); details: 1 μM
Description: as §2
Mitochondrial reactive oxygen species (ROS) production was monitored spectrofluorimetrically with 2′,7′-dichlorodihydrofluorescein diacetate (H2DCFDA) with the 503/529 nm excitation/emission wavelength pair, both using the standard reaction medium.

[10] = Biomimetic oxidation of monensin A catalysed by Jacobsen catalyst (CYP450 model), HPLC-ESI-MS; format: in vitro ADME; details: catalyst:oxidant:monensin A 1:20:20, CH2Cl2, room temperature, 24 h
Description: Based on the previous studies by this laboratory, the oxidation reactions were performed in an Eppendorf tube (2 mL), under mechanical stirring (Vibrax VXR agitator) at room temperature for 24 h. The ideal molar ratio obtained for the reaction was 1 : 20 : 20 (for catalyst : oxidant : monensin A). This was achieved by adding 0.3 mmol·L^-1 : 6 mmol·L^-1 : 6 mmol·L^−1 in the 0.5 mL of reaction medium (CH2Cl2). The oxidants were m-CPBA, PhIO, t-BOOH, and H2O2. The products from monensin A oxidation were analyzed by HPLC-ESI-MS. Control reactions were carried out in the absence of catalyst under the same conditions as the catalytic runs and no products were detected.
LC-ESI-MS analyses were performed on a Varian LC-MS 1200L triple quadrupole apparatus coupled to a mass spectrometer with ESI ionization in the positive mode (Varian Medical Systems Inc., Palo Alto, CA). The chromatographic analysis was performed using an injection volume of 10 μL, sample concentration 50 μg·mL^−1 in an Xterra analytical column MS C-18 (150 × 2.1 mm, 5 μm) (Waters) and following gradient (MeOH : H2O): 0.1 min 70% MeOH, 20.0 min 98% MeOH, 21.0 min 30% MeOH, and 30.0 min 70% MeOH. The MS conditions were capillary voltage 3.2 kV, cone voltage 40 V, source temperature 40°C, and N2 desolvation temperature 350°C. The percentage of monensin A oxidation was determined by using a calibration curve of 10–100 μg·mL^−1. The resulting mass spectra were monitored over a m/z range of 610 to 800.

S. aureus ATCC 25923 = test system: S. aureus ATCC 25923; set-up: method as in PMID 23509771; details: cited from earlier work
[11] = test system: S. epidermidis ATCC 12228; set-up: method as in PMID 23509771; details: cited from earlier work
[12] = test system: S. epidermidis ATCC 35984; set-up: method as in PMID 23509771; details: cited from earlier work
Bacillus subtilis = test system: Bacillus subtilis; set-up: method as in PMID 17702333; details: bioautography against Bacillus subtilis; cited from earlier work
Streptococcus faecalis = test system: Streptococcus faecalis; set-up: method as in PMID 17702333; details: turbidimetric assay against Streptococcus faecalis; cited from earlier work
[13] = ATCC25922, E. coli ATCC 25922, read-out: Minimal bactericidal concentration
[14] = ATCC27853, P. aeruginosa ATCC 27853, read-out: Minimal bactericidal concentration
[15] = ATCC25923, S. aureus ATCC 25923, read-out: Minimal bactericidal concentration
[16] = ATCC14990, S. epidermidis ATCC 14990, read-out: Minimal bactericidal concentration
[17] = isolated rat liver mitochondria 1.0 mg protein·mL−1

Structure (SMILES) | MBC [1, 13] [µg/mL] | MBC [2, 14] [µg/mL] | MBC [3, 15] [µg/mL] | MBC ([4]; S. aureus ATCC 43300 (MRSA)) [µg/mL] | MBC [5, 16] [µg/mL] | effect on mitochondrial respiratory parameters (in words) (rat liver mitochondria [6]) | ADP/O (phosphorylation efficiency) (rat liver mitochondria [6]; [17]) | RCR (respiratory control ratio) (rat liver mitochondria [6]; [17]) | V3 (state 3 respiration rate) (rat liver mitochondria [6]; [17]) | V4 (state 4 respiration rate) (rat liver mitochondria [6]; [17]) | effect on mitochondrial membrane potential (in words) (rat liver mitochondria [7]) | effect on mitochondrial swelling (in words) (rat liver mitochondria [8]) | effect on mitochondrial ROS accumulation (in words) (rat liver mitochondria [9]) | Minimal bactericidal concentration ([3]; S. aureus ATCC 25923) [µg/mL] | Minimal bactericidal concentration ([4]; S. aureus ATCC 43300 (MRSA)) [µg/mL] | further results
O=C(N[C@H](CO)[C@H](O)c1ccc([N+](=O)[O-])cc1)C(Cl)Cl [Chloramphenicol, chloramphenicol, reference compound] | 3.1 (≈ 9.59 µM) | 100 (≈ 309 µM) | 6.3 (≈ 19.5 µM) | 8.3 (≈ 25.7 µM) | 6.3 (≈ 19.5 µM) |  |  |  |  |  |  |  |  |  |  | 
CC[C@@]1([C@@H]2O[C@@H]([C@H]3O[C@@](O)(CO)[C@H](C)C[C@@H]3C)C[C@@H]2C)CC[C@H]([C@]2(C)CC[C@]3(C[C@H](O)[C@@H](C)[C@@H]([C@@H](C)[C@@H](OC)[C@H](C)C(=O)O)O3)O2)O1 [Monensin A] | > 100 | > 100 | 3.1 (≈ 4.62 µM) | 6.3 (≈ 9.39 µM) | 25 (≈ 37.3 µM) |  |  |  |  |  |  |  |  |  |  | ADP/O (phosphorylation efficiency) (rat liver mitochondria [6]; rat, pH 7.2): 1.498 ± 0.01^b; RCR (respiratory control ratio) (rat liver mitochondria [6]; rat, pH 7.2): 4.548 ± 0.16^b; V3 (state 3 respiration rate) (rat liver mitochondria [6]; rat, pH 7.2): 64.097 ± 2.35^a nmol O2/mg protein/min; V4 (state 4 respiration rate) (rat liver mitochondria [6]; rat, pH 7.2): 14.12 ± 0.97^b nmol O2/mg protein/min; decrease of respiratory control ratio (RCR) (rat liver mitochondria [6]; rat, pH 7.2): 32.59%; increase of state 4 of oxygen consumption (rat liver mitochondria [6]; rat, pH 7.2): 44.11%; reduction in ADP/O (rat liver mitochondria [6]; rat, pH 7.2): 47.73%; decrease on the mitochondrial membrane potential (rat liver mitochondria [7]; rat): 23.29%; mitochondrial swelling, effect on the apparent turbidity (rat liver mitochondria [8]; rat): 54.61%; increase in accumulation of free radicals (ROS) (rat liver mitochondria [9]; rat): 12.14%; monensin conversion ([10]; oxidant H2O2): 26%; monensin conversion ([10]; oxidant PhIO): 36%; monensin conversion ([10]; oxidant m-CPBA): 27%; monensin conversion ([10]; oxidant t-BOOH): 14%; antimicrobial activity concentration (S. aureus ATCC 25923): 2.9 µg/mL; antimicrobial activity concentration [11]: 2.9 µg/mL; antimicrobial activity concentration [12]: 5.8 µg/mL
CCC1(C2OC(C3OC(O)(CO)C(C)C(O)C3C)CC2C)CCC(C2(C)CCC3(CC(O)C(C)C(C(C)C(OC)C(C)C(=O)O)O3)O2)O1 (centres unmarked) [Product 2, 12-hydroxy monensin A] | > 100 | > 100 | > 100 | > 100 | > 100 | none of these detrimental effects | 2.728 ± 0.06^a | 6.786 ± 0.15^a | 66.730 ± 1.95^a nmol O2/mg protein/min | 9.832 ± 0.07^a nmol O2/mg protein/min | no effect | no effect | no effect | > 100 | > 100 | 
CCC1(C2OC(C3OC(O)(CO)C(C)CC3C)CC2C)CCC(C2(C)CCC3(CC(O)C(C)C(C(C)C(O)C(C)C(=O)O)O3)O2)O1 (centres unmarked) [Product 1, 3-O-demethyl monensin A] |  |  |  |  |  | none of these detrimental effects | 2.757 ± 0.09^a | 6.623 ± 0.27^a | 66.363 ± 2.29^a nmol O2/mg protein/min | 10.02 ± 0.11^a nmol O2/mg protein/min | no effect | no effect | no effect | 25.0 (≈ 38.1 µM) | 50.0 (≈ 76.1 µM) | MBC ([1]; ATCC25922, read-out: Minimal bactericidal concentration): > 100 µg/mL; MBC ([2]; ATCC27853, read-out: Minimal bactericidal concentration): > 100 µg/mL; MBC ([3]; ATCC25923, read-out: Minimal bactericidal concentration): 25 µg/mL (≈ 38.1 µM); MBC [4]: 50 µg/mL (≈ 76.1 µM); MBC ([5]; ATCC14990, read-out: Minimal bactericidal concentration): > 100 µg/mL; antimicrobial activity relative to monensin (Bacillus subtilis): 5%; antimicrobial activity relative to monensin (Streptococcus faecalis): 5%
